Experimental data taken from patent publication US20150259331A1, “PROTOZOAN PARASITE GROWTH INHIBITORS” (Northeastern University, priority 2014, published 2015).
Where two headings read alike, the source gives them in different places. Each block holds one compound with its values, some of them ahead of it.

What was measured:
[1] = HepG2 cell toxicity (MTT) assay; assay type: cell-based; settings: human, HepG2 cells; Table 13; read-out: HepG2 TC50
T. cruzi = T. cruzi growth inhibition; assay type: cell-based, Trypanosoma cruzi
[2] = test system: T. brucei brucei Lister 427; assay: Trypanosome replication assay; assay type: cell-based, Trypanosoma brucei brucei; settings: for EC50: 48 h, concentration giving 50% inhibition of growth of T brucei brucei Lister 427 cells, values ±7%, read-out: Tbb EC50; for inhibition at 5 µM: read-out: Tbb % inh at 5 μM
L. major promastigote = L. major promastigote assay; assay type: cell-based
L. major amastigote = L. major amastigote assay; assay type: cell-based
P. fal = P. fal assay of Table 13 (strain not given); assay type: cell-based, P. falciparum
[3] = test system: T. brucei brucei Lister 427; settings: published activities of HAT treatments and SCYX-7158; read-out: Tbb EC50; cited from earlier work
[4] = Human liver microsomes CLint
HepG2 cells = assay: HepG2 cell toxicity (MTT) assay; assay type: cell-based; settings: Table 13; read-out: HepG2 TC50
[5] = Protein binding (Table 14); settings: plasma
[6] = Male rat hepatocytes CLint
logD = assay type: physicochemical
[7] = Thermodynamic aqueous solubility; assay type: physicochemical
[8] = test system: endocytosis of transferrin; assay: Receptor-mediated endocytosis of transferrin in the trypanosome; assay type: cell-based, T. brucei
in vitro = settings: male, BALB/c, mouse
Experimental: Mice plasma (BALB/c mice, male—pool of 3 animals) was collected in-house using K2EDTA as anticoagulant. […] Glipizide (Cat #50402G) was purchased from Apin chemicals, Abingdon, Oxon. Albendazole (Cat #A4673) was purchased from Sigma. Phosphate buffered saline pH 7.4 (0.1 M sodium phosphate and 0.15 M sodium chloride) and RED device inserts were procured from Thermo Scientific, Meridian Rd., Rockford, Ill.
Further 1 mM stock was diluted 200-fold in mice plasma to prepare a concentration of 5 μM. The final DMSO concentration in plasma was 0.5%.
Rapid equilibrium dialysis was performed with a rapid equilibrium dialysis (RED) device containing dialysis membrane with a molecular weight cut-off of 8,000 Daltons. Each dialysis insert contains two chambers. The red chamber is for plasma while the white chamber is for buffer. A 200 μL aliquot of warfarin or test compound at 5 μM (triplicates) was separately added to the plasma chamber and 350 μL of phosphate buffer saline (pH 7.4) was added to the buffer chamber of the inserts. After sealing the RED device with an adhesive film, dialysis was performed at 37° C. with shaking at 100 rpm for 4 hours as per manufacturer's recommendation.
Recovery and stability: A 50 μL aliquot of warfarin or test compound was added to four 0.5 mL microfuse tubes. Two aliquots were frozen immediately (0 minute sample). The other two aliquots were incubated at 37° C. for 4 hours along with the RED device.
Following dialysis, an aliquot of 50 μL was removed from each well (both plasma and buffer side) and diluted with equal volume of opposite matrix (dialyzed with the other matrix) to nullify the matrix effect. Similarly, 50 μL of buffer was added to recovery and stability samples. An aliquot of 100 μL was submitted for LC-MS/MS analysis.
A 25 μL aliquot of warfarin and test compounds were crashed with 100 μL of acetonitrile containing internal standard (glipizide for warfarin and test compound) and vortexed for 5 minutes. The samples were centrifuged at 15,000 rpm at 4° C. for 10 min and 100 μL of supernatant was submitted for LCMS/MS analysis. Samples were monitored for parent compound in MRM mode using LC-MS/MS.

[9] = not given; remark: listed apart in the source

Compound: CC1(C)OB(O)c2cc(NC(=O)c3ccc(F)cc3C(F)(F)F)ccc21 [SCYX-7158]
- EC50 [3]: 794 nM

Compound: Nc1nc(N)nc(Nc2ccc([As]3SCC(CO)S3)cc2)n1 (stereo not drawn) [melarsoprol]
- EC50 [3]: 6.3 nM

Compound: CS(=O)(=O)CCNCc1ccc(-c2ccc3ncnc(Nc4ccc(OCc5cccc(F)c5)c(Cl)c4)c3c2)o1 [Compound 1, lapatinib, reference compound]
- effect on endocytosis of transferrin [8]: inhibited endocytosis of transferrin

Compound: CC(=O)CC(c1ccccc1)c1c(O)c2ccccc2oc1=O (stereo not drawn) [Warfarin]
- recovery at 4 h, 5 μM (in vitro; pH 7.4): 95%
- % compound remaining at 4 h (in vitro; plasma, 4 h, 5 μM): 100%
- fraction unbound at 4 h, 5 μM (in vitro; plasma, pH 7.4, % Bound Mean (SD)): 0.156
- fraction unbound at 4 h, 5 μM (in vitro; plasma, pH 7.4, % Bound R1): 0.051
- fraction unbound at 4 h, 5 μM (in vitro; plasma, pH 7.4, % Bound R2): 0.058
- fraction unbound at 4 h, 5 μM (in vitro; plasma, pH 7.4, % Bound R3): 0.059

Compound: N=C(N)c1ccc(OCCCCCOc2ccc(C(=N)N)cc2)cc1 [pentamidine]
- EC50 [3]: 3.5 nM

Further lines, with some results ahead:

- EC50 (T. cruzi; Trypanosoma cruzi): > 50000 nM
- EC50 ([2]; Trypanosoma brucei): > 2500 nM
- EC50 (L. major promastigote; Leishmania major): > 15000 nM
- EC50 (L. major amastigote; Leishmania major): > 15000 nM
- EC50 (P. fal; Plasmodium falciparum): 870 nM
Compound: O=S(=O)(c1ccc(-c2ccc3ccnc(Nc4ccc(OCc5ccccc5)c(Cl)c4)c3c2)cc1)N1CCOCC1 [NEU-949, N-(4-(Benzyloxy)-3-chlorophenyl)-7-(4-(morpholinosulfonyl)phenyl)isoquinolin-1-amine]
- CC50 at 48 h [1]: > 15000 nM

- Human liver microsomes median CLint [4]: 142.7 µL/min/mg
- fraction unbound [5]: < 0.01
- EC50 (T. cruzi; Trypanosoma cruzi): 730 nM
- EC50 ([2]; Trypanosoma brucei): 79 nM
- EC50 (L. major promastigote; Leishmania major): 1000 nM
- EC50 (L. major amastigote; Leishmania major): 1600 nM
- Male rat hepatocytes median CLint [6]: 20.24 μl/min/1E6 cells
- EC50 (P. fal; Plasmodium falciparum): 19 nM
Compound: CN1CCN(S(=O)(=O)c2ccc(-c3ccc4c(Nc5ccc(OCc6cccc(F)c6)c(Cl)c5)ccnc4c3)cc2)CC1 [NEU-961, N-(3-Chloro-4-((3-fluorobenzyl)oxy)phenyl)-7-(4-((4-methylpiperazin-1-yl)sulfonyl)phenyl)quinolin-4-amine]
- CC50 (HepG2 cells): > 4000 nM

- Human liver microsomes median CLint [4]: 78.87 µL/min/mg
- fraction unbound [5]: < 0.01
- EC50 (T. cruzi; Trypanosoma cruzi): 49000 nM
- EC50 ([2]; Trypanosoma brucei): 2100 nM
- logD (logD): 3.5
- EC50 (L. major promastigote; Leishmania major): 200 nM
- EC50 (L. major amastigote; Leishmania major): > 3000 nM
- Male rat hepatocytes median CLint [6]: 13.93 μl/min/1E6 cells
- Solubility [7]: <1 µM
- EC50 (P. fal; Plasmodium falciparum): 32 nM
Compound: O=S(=O)(c1ccc(-c2ccc3nccc(Nc4ccc(OCc5ccccc5)c(Cl)c4)c3c2)cc1)N1CCOCC1 [NEU-945, N-(4-(Benzyloxy)-3-chlorophenyl)-6-(4-(morpholinosulfonyl)phenyl)quinolin-4-amine]
- CC50 (HepG2 cells): > 5000 nM

- Human liver microsomes median CLint [4]: 99.32 µL/min/mg
- fraction unbound [5]: < 0.01
- EC50 (T. cruzi; Trypanosoma cruzi): 49000 nM
- EC50 ([2]; Trypanosoma brucei): 210 nM
- EC50 (L. major promastigote; Leishmania major): 6400 nM
- EC50 (L. major amastigote; Leishmania major): 240 nM
- Male rat hepatocytes median CLint [6]: 36.72 μl/min/1E6 cells
- Solubility [7]: <1 µM
- EC50 (P. fal; Plasmodium falciparum): 3 nM
Compound: CN1CCCN(S(=O)(=O)c2ccc(-c3ccc4c(Nc5ccc(OCc6cccc(F)c6)c(Cl)c5)cnnc4c3)cc2)CC1 [NEU-1017, N-(3-Chloro-4-((3-fluorobenzyl)oxy)phenyl)-7-(4-((4-methyl-1,4-diazepan-1-yl)sulfonyl)phenyl)cinnolin-4-amine]
- CC50 (HepG2 cells): 15000 nM

- EC50 (T. cruzi; Trypanosoma cruzi): > 50000 nM
- EC50 (L. major promastigote; Leishmania major): > 15000 nM
- EC50 (L. major amastigote; Leishmania major): 2200 nM
- EC50 (P. fal; Plasmodium falciparum): 2800 nM
Compound: Fc1cccc(COc2ccc(Nc3nccc4cc(-c5cccc(N6CCOCC6)c5)ccc34)cc2Cl)c1 [NEU-946, N-(3-Chloro-4-((3-fluorobenzyl)oxy)phenyl)-6-(3-morpholinophenyl)isoquinolin-1-amine]
- CC50 at 48 h [1]: > 15000 nM
- inhibition at 5 µM ([2]; Trypanosoma brucei): 12%

- EC50 (T. cruzi; Trypanosoma cruzi): > 50000 nM
- EC50 (L. major promastigote; Leishmania major): > 15000 nM
- EC50 (L. major amastigote; Leishmania major): 6000 nM
- EC50 (P. fal; Plasmodium falciparum): 2500 nM
Compound: Fc1cccc(COc2ccc(Nc3nccc4ccc(-c5cccc(N6CCOCC6)c5)cc34)cc2Cl)c1 [NEU-947, N-(3-Chloro-4-((3-fluorobenzyl)oxy)phenyl)-7-(3-morpholinophenyl)isoquinolin-1-amine]
- CC50 at 48 h [1]: > 15000 nM
- inhibition at 5 µM ([2]; Trypanosoma brucei): 0.1%

- EC50 (T. cruzi): 90 nM
- Human liver microsomes median CLint: 151.8 µL/min/mg
- EC50 [2]: 350 nM
- Male rat hepatocytes median CLint [9]: 37.95 μl/min/1E6 cells
- EC50 (L. major promastigote): 920 nM
- EC50 (L. major amastigote): 1600 nM
- EC50 (P. fal): 47 nM
Compound: CN1CCCN(S(=O)(=O)c2ccc(-c3ccc4ncc(C#N)c(Nc5ccc(OCc6cccc(F)c6)c(Cl)c5)c4c3)cc2)CC1 [NEU-924]
- CC50 (HepG2 cells): > 15000 nM
